Format in all cases: cell-based, human
A short description of data set [1]: Cytotoxicity in MCF-10A cells (alamarBlue). The settings on record: human, MCF-10A non-tumorigenic mammary epithelial cells. The method, then: Figure 9 Effect of compounds 22a (A) and 22b (B) on the cell viability of non-tumorigenic MCF-10A human mammary epithelial cells at 24, 48, and 72 h. Cells were treated with the compounds 22a and 22b at concentrations of 10 μM, 1 μM, 0.5 μM, and 0.4 μM for 24, 48, or 72 h. […] Cell viability was expressed as a percentage of vehicle control (ethanol 1% (v/v)) and was determined by an alamarBlue assay (average ± SEM of three independent experiments). Two-way ANOVA (Bonferroni post-test) was used to test for statistical significance (*, p < 0.05; **, p < 0.01; ***, p < 0.001).
HL-60 cells were suspension cells and the seeding density for the viability assay was 25,000 cells/mL. MCF-7 cells (adherent) were cultured in Minimum Essential Media (MEM) with GlutaMAX™-I, supplemented with 1% (v/v) non-essential amino acids, 10% (v/v) fetal bovine serum (FBS), purchased from BD Biosciences (Edmund Halley Road, Oxford, UK), and 1% (v/v) penicillin/streptomycin 5000 U/mL. The MCF-7 cells used in the screening of the compounds during these experiments were mycoplasma-free. The seeding density of MCF-7 in the viability assay was 25,000 cells/mL and 50,000 cells/mL in the FACS assay. Normal breast cells (MCF-10A) (adherent) were cultured in Dulbecco’s Modified Eagle Medium: Nutrient Mixture F-12 (DMEM/F12; Gibco) supplemented with 5% horse serum (Invitrogen, Waltham, MA, USA), 20 ng/mL epidermal growth factor (Merck Millipore, Burlington, MA, USA), 0.5 μg/mL hydrocortisone (Sigma, Kanagawa, Japan), 100 ng/mL cholera toxin (Sigma), 10 μg/mL insulin (Sigma), and penicillin/streptomycin 5000 U/mL (1%) (Gibco, Waltham, MA, USA). […] MDA-MB-231 cells were cultured in Dulbecco’s Modified Eagle Medium, which was supplemented with 10% (v/v) fetal bovine serum (FBS) and 1% (v/v) penicillin/streptomycin 5000 U/mL. When not in use, all cells were kept in liquid nitrogen and frozen in a freezing media made of 90% FBS and 10% DMSO. All cells were grown in an atmosphere of 5% CO2/95% air in T75 culture flasks. The media was changed every 2–3 days and media was always prewarmed to 37 °C. All were sub-cultured every 3–4 days by trypsinization using TrypLE™ Express enzyme when confluence was reached to allow growth, prevent excessive cell death, and minimize the risk of infections derived by over-confluence. For the cell viability assay, the number of cells per milliliter was 25,000 cells/mL while the FACS assay utilized 50,000 cells/mL. Cells were maintained at 37 °C in 5% CO2 in a humidified incubator.
The biochemical assays were performed in triplicate and on at least three independent occasions to facilitate the determination of mean values. For the viability assay, cells were grown until 80% confluent. Adherent cells such as MCF-7, MDA-MB-231, and MCF-10A were trypsinized to detach them from the flask, counted as previously described, and seeded in 96 well plates with a seeding density of 25,000 cells /mL (200 µL of suspension in each well so that the final number of cells per well was 5000) and 1 × 10^4 cells/well seeding density for suspension HL-60 cells. Adherent cells were incubated for 24 h after being seeded in the 96 well plate and treated on the following day, while suspension cells were treated on the same day of the seeding. In both cases, the incubation time after the treatment with the drug was 72 h. After 68 h incubation, the AlamarBlue was added (20 µL in each well) and the incubation time was completed. After 72 h, the change in color was measured by spectrofluorimetry at an excitation wavelength of 544 nm and emission wavelength of 590 nm. AlamarBlue is a cell viability indicator containing a compound called resazurin. AlamarBlue is water soluble, stable in culture media, non-toxic, and is permeable through the cell membrane. When resazurin (blue) enters the live cells, it is reduced to the fluorescent molecule resorufin (pink).
(Alamar Blue is a resazurin reagent that responds to reducing activity.)

Data set [2] deals with CCRF-CEM (Leukemia). The experiment in a line: NCI60 screen (SRB). The note with it: one dose 10 µM, 48 h.
The subject of data set [3] is K-562 (Leukemia). The experiment in a line: NCI60 screen (SRB). The note with it: one dose 10 µM, 48 h.
The test system of data set [4] is A549/ATCC (Non-Small Cell Lung Cancer). Nature of the data set: NCI60 screen (SRB). The settings on record: one dose 10 µM, 48 h.
For data set [5], the system named is HOP-92 (Non-Small Cell Lung Cancer). Nature of the data set: NCI60 screen (SRB). The note with it: one dose 10 µM, 48 h.
The test system of data set [6] is HCT-15 (Colon Cancer). Nature of the data set: NCI60 screen (SRB). The settings on record: one dose 10 µM, 48 h.
Data set [7] concerns SW-620 (Colon Cancer). Nature of the data set: NCI60 screen (SRB). The settings on record: one dose 10 µM, 48 h.
The subject of data set [8] is SNB-75 (CNS Cancer). The experiment in a line: NCI60 screen (SRB). The settings on record: one dose 10 µM, 48 h.
In data set [9] the test system is SK-MEL-2 (Melanoma). Nature of the data set: NCI60 screen (SRB). The note with it: one dose 10 µM, 48 h.
The test system of data set [10] is OVCAR-5 (Ovarian Cancer). Nature of the data set: NCI60 screen (SRB). The note with it: one dose 10 µM, 48 h.
The subject of data set [11] is OVCAR-8 (Ovarian Cancer). Nature of the data set: NCI60 screen (SRB). The note with it: one dose 10 µM, 48 h.
Data set [12] deals with NCI/ADR-RES (Ovarian Cancer). The experiment in a line: NCI60 screen (SRB). The note with it: one dose 10 µM, 48 h.
The test system of data set [13] is CAKI-1 (Renal Cancer). Nature of the data set: NCI60 screen (SRB). The note with it: one dose 10 µM, 48 h.
Data set [14] concerns RXF 393 (Renal Cancer). Nature of the data set: NCI60 screen (SRB). The note with it: one dose 10 µM, 48 h.
Data set [15] has as its system BT-549 (Breast Cancer). Nature of the data set: NCI60 screen (SRB). The settings on record: one dose 10 µM, 48 h.
Data set [16] relates to MDA-MB-468 (Breast Cancer). The experiment in a line: NCI60 screen (SRB). The settings on record: one dose 10 µM, 48 h.

The compound `COc1ccc(/C=C/C(c2cc(OC)c(OC)c(OC)c2)n2cncn2)cc1` (stereo not shown) [Compound 22a, (E)-1-(3-(4-Methoxyphenyl)-1-(3,4,5-trimethoxyphenyl)allyl)-1H-1,2,4-triazole] displayed a viability at 72 h, 0.4 µM in [1] (0.4 μM, 72 h) of over 80%. In data set [1] (1 μM, 24 h, read-out: cell viability), the viability at 24 h, 1 µM amounted to 100%. In addition, the viability at 48 h, 1 µM in [1] (1 μM, 48 h, read-out: viable cells) was over 80%. In data set [1] (10 μM, 24 h, read-out: viable cells), the viability at 24 h, 10 µM worked out at 78%. In addition, the viability at 48 h, 10 µM in data set [1] (10 μM, 48 h, read-out: viable cells) is about 57%. The growth percent in [2] is given as 35.07%; in data set [3], 17.72%; in data set [4], 35.48%; in [5], 40.32%; in data set [6], 31.14%; in data set [7], 26.63%. Further, the growth percent in data set [8] is on record as 51.27%; in data set [9], 12.89%; in data set [10], 90.16%; in [11], 52.16%; in data set [12] it was 36.28%; in data set [13], 51.61%. For the same compound, the figures for the growth percent in data set [14], in data set [15] and in [16] were 46.51%, 45.45% and 40.88%, respectively.
Turning to `COc1ccc(/C=C/C(c2cc(OC)c(OC)c(OC)c2)n2ccnc2)cc1O` (stereo not shown) [Compound 23b, (E)-5-(3-(1H-Imidazol-1-yl)-3-(3,4,5-trimethoxyphenyl)prop-1-en-1-yl)-2-methoxyphenol], the growth percent was 37.13% in data set [2]; 13.63% in data set [3]; 29.07% in [4]; 30.49% in [5]; 24.91% in data set [6]; 17.41% in data set [7]. The growth percent was 20.04% in data set [8]; 41.65% in data set [9]; 102.8% in data set [10]; 40.97% in data set [11]; 45.70% in data set [12]; 60.21% in data set [13]. For the same compound, the figures for the growth percent in data set [14], in [15] and in [16] were 33.07%, 44.34% and 40.60%, respectively.
For the compound `COc1ccc(C2CC(n3ccnc3)c3cc(OC)c(OC)c(OC)c32)cc1O` (stereo not shown) [Compound 27a, 5-(3-(1H-Imidazol-1-yl)-5,6,7-trimethoxy-2,3-dihydro-1H-inden-1-yl)-2-methoxyphenol], the growth percent in data set [2] is 90.92%; in data set [3] it was 44.70%; in data set [4], 55.83%; in [5] it was 59.58%; in data set [6], 59.92%; in [7], 62.47%. Besides, the growth percent amounted to 90.16% in data set [8]; 89.63% in data set [9]; 106.81% in [10]; 89.25% in [11]; 93.87% in [12]; 74.50% in data set [13]. The figures for the growth percent in [14], in [15] and in data set [16] were 70.77%, 90.36% and 78.64%, respectively.
For the compound `COc1cc(/C=C/C(/C=C/c2cc(OC)c(OC)c(OC)c2)n2ccnc2)cc(OC)c1OC` [Compound 30, 1-((1E,4E)-1,5-bis(3,4,5-trimethoxyphenyl)penta-1,4-dien-3-yl)-1H-imidazole], the growth percent in data set [2] amounted to 65.10%; in data set [3], 61.41%; in data set [4], 78.93%; in data set [5] it was 56.24%; in data set [6] it was 77.23%; in data set [7], 88.00%. The growth percent in data set [8] turned out to be 54.99%; in [9], 81.02%; in data set [10], 129.83%; in data set [11] it was 83.74%; in data set [12] it was 89.35%; in data set [14] it was 88.15%. The growth percent in data set [15] is reported as 83.42%; in data set [16], 57.22%.
